Measurements taken from publication PMC7591920, “A protein tertiary structure mimetic modulator of the Hippo signalling pathway” (Nature Communications, 2020).
Bridge positions count the residues as written; N and C are the ends. Square brackets hold non-standard residues; d marks the D form. Peptide text beside a SMILES is read from it. Orn = NCCC[C@H](N)C(=O)O; Dab = NCC[C@H](N)C(=O)O

Tests used:
[1] = target: T1, mTEAD4 (Mus musculus, UniProt Q62296); test: SPR binding to immobilised mTEAD4; details: mTEAD4 amine-coupled on CM5, multi-cycle, steady-state fit 1:1 model, 10 mM HEPES 150 mM NaCl 0.05% Tween-20 pH 7.4, 0.3% DMSO, 20 °C, Fig. 1 values n = 1 replicate
T1 construct: Mouse TEAD4(210–427) cDNA fused with a 6x His-tag and a 3C protease cleavage site; 6x His-tag; 3C protease cleavage site; made in house; host or cells: E. coli BL21 DE3 RIL(K+)
T1 sequence (Q62296 210-427): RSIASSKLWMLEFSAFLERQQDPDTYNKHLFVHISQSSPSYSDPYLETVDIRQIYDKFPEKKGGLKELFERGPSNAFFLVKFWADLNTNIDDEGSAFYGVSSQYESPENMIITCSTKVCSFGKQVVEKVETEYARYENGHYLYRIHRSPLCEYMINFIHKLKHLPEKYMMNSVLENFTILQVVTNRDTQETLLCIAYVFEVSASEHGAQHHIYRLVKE
Protocol: Sensor chips Series S CM5 (Research grade) were obtained from GE Healthcare. Prior to use, the sensor chips were equilibrated at room temperature for 15 min to prevent water condensation on the detector side of the sensor chip surface. A running buffer was prepared composed of 10 mM HEPES, 150 mM NaCl, and 0.05% (w/v) Tween-20, pH 7.4, and the system was equilibrated at 20 °C using a flow rate of 30 µL min^−1 after docking of the sensor chip. Ligand binding experiments have been performed applying the concept of multi-cycle kinetics. A contact time of 45 s was selected, followed by a 6-min dissociation phase to allow for complete dissociation of the analyte prior to the next cycle. […] Typically, seven concentrations of the analytes have been examined applying a threefold dilution pattern with 30 µM as top concentration. For the analysis, five running buffer blanks were injected to equilibrate the instrument. […] The carboxyl-dextran surface was activated for 7 min with 0.05 M NHS and 0.2 M EDC, followed by an injection of the proteins in 10 mM MES pH 6.4 at a concentration of 30–50 µg mL^−1. […] This was followed by a deactivation of the residual esters by injecting a solution of 0.5 M ethanolamine pH 8.0 for 7 min before engaging in ligand binding experiments. Reference surfaces were prepared accordingly, omitting the injection of protein over the activated reference surface.

[2] = test system: RKO cells; test: Total drug content in RKO cells by UPLC-MS; details: 25 µM compound; for Total drug content, Measured Concentration: RIPA total lysis, diluted lysate; for Total drug content, Measured Concentration / Total drug content / Measured Conc: UPLC-MS; for Total drug content, Measured Concentration / Total drug content: n = 2; for Total drug content: total lysis; for Measured Conc / pMol/mg of protein, Mean / pMol/mg, Mean: total drug content; for pMol/mg of protein, Mean / pMol/mg, Mean: mean of 2 replicates
Protocol: (§1) Peptides were incubated in RKO cells (ATCC, #CRL-2577) as follows: Experiment 1: RKO cells were incubated in 25 µM compound for 90 min and 24 h. Experiment 2: RKO cells were incubated in 25 µM for 30 min or 72 h. Following peptide incubation, the cells were washed twice with PBS, trypsinized and pelleted. The pellets were lysed in RIPA buffer (Perkin Elmer) for total lysis, or CelLytic NuCLEAR Extraction Kit (SIGMA) for subcellular fractionation. Total protein quantification BCA (Pierce) was performed prior to MS analysis to normalize sample data. Total and fractionated cell lysates were analysed by quantitative UPLC-MS utilizing a Waters Xevo TQ-XS (WBA0259) and an Acquity UPLC system from Waters consisting of Sample Manager (M16UFL953M), Acquity PDA (F17UPD457A), Column Oven (E17CMP703G) and Binary Solvent Manager (E17BUR621G). […] Chromatograms of the samples were treated similarly, and by linear regression (1/x) an in-cell concentration was established in the re-suspended cell lysate using the Waters MassLynx TargetLynx^TM product.

[3] = test system: RKO cells; test: Sub-cellular (cytoplasmic, nuclear) peptide concentration in RKO cells by UPLC-MS; details: for Sub-cellular drug content, Cytoplasm / Sub-cellular drug content, Cytoplasm, Measured concentration / Sub-cellular drug content, Nuclear / Sub-cellular drug content, Nuclear, Measured concentration / Sub-cellular drug content, Cytoplasm, nMol / Sub-cellular drug content, Nuclear, nMol / Sub-cellular drug content, Cytoplasm, pMol.mg-1 / Sub-cellular drug content, Nuclear, pMol.mg-1: n = 2; for pMol/mg: Nuclear; for Cytoplasmic concentration of peptide: cytoplasmic fraction; for Nuclear concentration of peptide: nuclear fraction; for Sub-cellular drug content, Cytoplasm, pMol.mg-1 / Sub-cellular drug content, Nuclear, pMol.mg-1: per mg protein; for Cytoplasmic concentration, raw data / Nuclear concentration, raw data: sheet Figure 3c, 25 µM unlabelled peptide; for Intracellular concentration: mass spectrometry
Protocol: as §1

[4] = 90 minutes, dilution factor 10, replicate 1
[5] = 90 minutes, dilution factor 10, replicate 2
[6] = 24 hours, dilution factor 10, replicate 1
[7] = 24 hours, dilution factor 10, replicate 2
[8] = 25 µM compound, 90 minutes, fractionation, UPLC-MS
[9] = 25 µM compound, 24 hours, fractionation, UPLC-MS

Compound	Kd [1]	Total drug content, Measured Concentration ([2]; 90 minutes)	Total drug content, Measured Concentration ([2]; 24 hours)	Total drug content ([2]; 24 hours)	Measured Conc [2, 4]	Measured Conc [2, 5]	pMol/mg of protein, Mean ([2]; 90 minutes)	Measured Conc [2, 6]	Measured Conc [2, 7]	pMol/mg, Mean ([2]; 24 hours)	Sub-cellular drug content, Cytoplasm, Measured concentration [3, 8]	Sub-cellular drug content, Nuclear, Measured concentration [3, 8]	Sub-cellular drug content, Cytoplasm, Measured concentration [3, 9]	Sub-cellular drug content, Nuclear, Measured concentration [3, 9]	other results
CC[C@H](C)[C@@H]1NC(=O)[C@H](CCC(N)=O)NC(=O)[C@H](CC(C)C)NC(=O)[C@H](Cc2c[nH]c3ccccc23)NC(=O)[C@H]([C@@H](C)O)NC(=O)[C@H](CC(=O)O)NC(=O)CNC(=O)[C@H](CC(C)C)NC(=O)[C@H](C)NC(=O)[C@H](CCCCN)NC(=O)[C@H](C)NC(=O)[C@H](Cc2ccccc2)NC(=O)[C@H](Cc2c[nH]cn2)NC(=O)[C@H](CC(=O)O)NC(=O)[C@@H](NC(=O)[C@@H](NC(=O)[C@H](CO)NC(C)=O)C(C)C)CC(=O)NCC[C@@H](C(=O)N[C@@H](C)C(=O)N[C@@H](C)C(N)=O)NC1=O [4A] (Ac-SVDDHFAKALGDTWLQI[Dab]AA-NH2; lactam 3-18)	11 µM	–	–	–	–	–	–	–	–	–	–	–	–	–	–
CC[C@H](C)[C@@H]1NC(=O)[C@H](CCC(N)=O)NC(=O)[C@H](CC(C)C)NC(=O)[C@H](Cc2c[nH]c3ccccc23)NC(=O)[C@H]([C@@H](C)O)NC(=O)[C@H](CC(=O)O)NC(=O)CNC(=O)[C@H](CC(C)C)NC(=O)[C@H](C)NC(=O)[C@H](CCCCN)NC(=O)[C@H](C)NC(=O)[C@H](Cc2ccccc2)NC(=O)[C@H](Cc2c[nH]cn2)NC(=O)[C@H](CC(=O)O)NC(=O)[C@@H](NC(=O)[C@@H](NC(=O)[C@H](CO)NC(C)=O)C(C)C)CC(=O)NCCC[C@@H](C(=O)N[C@@H](C)C(=O)N[C@@H](C)C(N)=O)NC1=O [4B] (Ac-SVDDHFAKALGDTWLQI[Orn]AA-NH2; lactam 3-18)	11 µM	–	–	–	–	–	–	–	–	–	–	–	–	–	–
CC[C@H](C)[C@@H]1NC(=O)[C@H](CCC(N)=O)NC(=O)[C@H](CC(C)C)NC(=O)[C@H](Cc2c[nH]c3ccccc23)NC(=O)[C@H]([C@@H](C)O)NC(=O)[C@H](CC(=O)O)NC(=O)CNC(=O)[C@H](CC(C)C)NC(=O)[C@H](C)NC(=O)[C@H](CCCCN)NC(=O)[C@H](C)NC(=O)[C@H](Cc2ccccc2)NC(=O)[C@H](Cc2c[nH]cn2)NC(=O)[C@H](CC(=O)O)NC(=O)[C@@H](NC(=O)[C@@H](NC(=O)[C@H](CO)NC(C)=O)C(C)C)CC(=O)NCCCC[C@@H](C(=O)N[C@@H](C)C(=O)N[C@@H](C)C(N)=O)NC1=O [4C] (Ac-SVDDHFAKALGDTWLQIKAA-NH2; lactam 3-18)	3.2 µM	–	–	–	–	–	–	–	–	–	–	–	–	–	–
CC(=O)NCC(=O)N[C@@H](CCCNC(=N)N)C(=O)N[C@@H](CCCCN)C(=O)N[C@@H](CCCCN)C(=O)N[C@@H](CCCNC(=N)N)C(=O)N[C@@H](CCCNC(=N)N)C(=O)N[C@@H](CCC(N)=O)C(=O)N[C@@H](CCCNC(=N)N)C(=O)N[C@@H](CCCNC(=N)N)C(=O)N[C@@H](CCCNC(=N)N)C(=O)N1CCC[C@H]1C(=O)N[C@@H](CCC(N)=O)C(N)=O [Tat, reference compound]	–	478.752 ± 163.021 nM	1797.357 ± 596.21 nM	2.696 ± 0.8943 nmol	641.773 nM	315.731 nM	882.5 pMol/mg of protein	2393.57 nM	1201.15 nM	1647 pMol/mg	91.363 ± 8.748 nM	416.901 ± 142.802 nM	98.42 ± 12.91 nM	656.841 ± 162.534 nM	Sub-cellular drug content, Cytoplasm [3, 8]: 0.137 nmol; Sub-cellular drug content, Nuclear [3, 8]: 0.6254 nmol; Sub-cellular drug content, Cytoplasm [3, 9]: 0.1476 nmol; Sub-cellular drug content, Nuclear [3, 9]: 0.9853 nmol; pMol/mg, Mean ([3]; Cytoplasm, 25 µM compound, 90 minutes (1.5 hrs), mean of 2 replicates): 209 pMol/mg; pMol/mg ([3]; 25 µM compound, 90 minutes (1.5 hrs), replicate 1): 2567 pMol/mg; pMol/mg ([3]; 25 µM compound, 90 minutes (1.5 hrs), replicate 2): 4988 pMol/mg; Cytoplasmic concentration of peptide ([3]; UPLC-MS, mean of n = 2): 231.15 pMols/mg of protein; Nuclear concentration of peptide ([3]; UPLC-MS, mean of n = 2): 3777.5 pMols/mg of protein
CC[C@H](C)[C@H](NC(=O)[C@H](CCC(N)=O)NC(=O)[C@H](CC(C)C)NC(=O)[C@H](Cc1c[nH]c2ccccc12)NC(=O)[C@@H](NC(=O)[C@H](CC(=O)O)NC(=O)CNC(=O)[C@H](CC(C)C)NC(=O)[C@H](C)NC(=O)[C@H](CCCCN)NC(=O)[C@H](C)NC(=O)[C@H](Cc1ccccc1)NC(=O)[C@H](Cc1c[nH]cn1)NC(=O)[C@H](CC(=O)O)NC(=O)[C@H](CC(=O)O)NC(=O)[C@@H](NC(=O)[C@H](CO)NC(C)=O)C(C)C)[C@@H](C)O)C(=O)N[C@@H](CCCCN)C(=O)N[C@@H](C)C(=O)N[C@@H](C)C(N)=O [compound 4] (Ac-SVDDHFAKALGDTWLQIKAA-NH2)	–	1133.521 ± 133.393 nM	322.145 ± 33.657 nM	0.4832 ± 0.05049 nmol	1266.91 nM	1000.13 nM	1685.1 pMol/mg of protein	355.802 nM	288.488 nM	331.25 pMol/mg	< LLOQ	< LLOQ	< LLOQ	< LLOQ	Total drug content ([2]; 90 minutes): 1.7 ± 0.2001 nmol; Sub-cellular drug content, Cytoplasm, nMol [3, 8]: < LLOQ; Sub-cellular drug content, Nuclear, nMol [3, 8]: < LLOQ; Sub-cellular drug content, Cytoplasm, pMol.mg-1 [3, 8]: < LLOQ; Sub-cellular drug content, Nuclear, pMol.mg-1 [3, 8]: < LLOQ; Sub-cellular drug content, Cytoplasm, nMol [3, 9]: < LLOQ; Sub-cellular drug content, Nuclear, nMol [3, 9]: < LLOQ; Sub-cellular drug content, Cytoplasm, pMol.mg-1 [3, 9]: < LLOQ; Sub-cellular drug content, Nuclear, pMol.mg-1 [3, 9]: < LLOQ; Cytoplasmic concentration of peptide ([3]; UPLC-MS, raw data replicate 1): <LLOQ; Cytoplasmic concentration of peptide ([3]; UPLC-MS, raw data replicate 2): <LLOQ; Nuclear concentration of peptide ([3]; UPLC-MS, raw data replicate 1): <LLOQ; Nuclear concentration of peptide ([3]; UPLC-MS, raw data replicate 2): <LLOQ; Cytoplasmic concentration, raw data ([3]; UPLC-MS, replicate 1): <LLOQ; Nuclear concentration, raw data ([3]; UPLC-MS, replicate 1): <LLOQ; Cytoplasmic concentration, raw data ([3]; UPLC-MS, replicate 2): <LLOQ; Nuclear concentration, raw data ([3]; UPLC-MS, replicate 2): <LLOQ; Detection in cytoplasmic and nuclear fractions ([3]; unlabelled peptide 25 µM, 90 min and 24 h, fractionation, UPLC-MS): not detected in subcellular fractions; Intracellular concentration ([3]; unlabelled peptide 25 µM, 90 min incubation, n = 2 biological replicates): < LLOQ; Intracellular concentration ([3]; unlabelled peptide 25 µM, 24 hours incubation, N = 2 biological replicates): < LLOQ
CC[C@H](C)[C@@H]1NC(=O)[C@H](CCC(N)=O)NC(=O)[C@H](CC(C)C)NC(=O)[C@H](Cc2c[nH]c3ccccc23)NC(=O)[C@H]([C@@H](C)O)NC(=O)[C@H](CC(=O)O)NC(=O)CNC(=O)[C@H](CC(C)C)NC(=O)[C@H](C)NC(=O)[C@H](CCCCN)NC(=O)[C@H](C)NC(=O)[C@H](Cc2ccccc2)NC(=O)[C@H](Cc2c[nH]cn2)NC(=O)[C@H](CC(=O)O)NC(=O)[C@@H](NC(=O)[C@H](C)NC(=O)[C@H](CO)NC(C)=O)CCC(=O)NCCCC[C@@H](C(=O)N[C@@H](C)C(=O)N[C@@H](C)C(N)=O)NC1=O [compound 15] (Ac-SAEDHFAKALGDTWLQIKAA-NH2; lactam 3-18)	1.5 ± 0.37 µM	–	–	–	–	–	–	–	–	–	–	–	–	–	–
